This is an account of results in patent US20020004493A1, “Method for the treatment of apolipoprotein E related diseases” (priority 1996, published 2002).

pEC50: −log10 of the molar value.

The first assay concerns toxic apoE fragments (22 kDa) on embryonic chick sympathetic neurons. The assay is described as follows: Protection of sympathetic neurons against toxic apoE fragments (vital dye survival count). In kind it is cell-based, chicken. The settings on record: 10 min pre-incubation with compound, then toxic 22 kDa apoE fragments, overnight, read-out: C50, the concentration required to prevent 50% cell death as compared to control. The text has this:
The purified apoE was then digested with thrombin and the resulting fragments separated by HPLC gel filtration chromatography (Bio SEC-Bio Rad). After buffer exchange and lyophilization, the purified 22 kDa fragment was subjected to amino acid analysis. For neurotoxicity studies, lumbar sympathetic chain ganglia were isolated from embryonic day nine chicken embryos (Spafas, Inc., Roanoke, Ill.) under sterile conditions in unsupplemented Ham's F12 medium (Sigma). The dissected chains were exposed to trypsin (0.25%) for 20 minutes at 37° C. The trypsin was inactivated by addition of fetal bovine serum. The chains were washed three times with medium and then triturated with flamed Pasteur pipettes to dissociate the cells. The cells were resuspended in Neurobasal medium (Gibco) and plated into 96-well plates pretreated with poly-ornithine. Dishes were incubated at 37° C. with 5% CO2/95% air. Following overnight incubation, the cells were treated with a range of concentrations of various compounds diluted in F12 medium supplemented with 100 μM putrescine, 20 nM progesterone, 100 μg/ml human transferrin, 30 nM selenium and 1% antibiotics (penicillin-streptomycin). The neuronal cells were pre-incubated for 10 min at 37° C. with a predetermined concentration of compound. The toxic fragments were then added to the culture medium while controls used the corresponding vehicle without the toxic fragments. After overnight incubation, the cells were labeled with a vital dye (5-carboxyfluorescein diacetate, acetoxymethyl ester, Molecular Probes, Eugene, Oreg.) for 30 minutes. The wells were washed with fresh F12 medium and images of the stained cells were collected from each well using a Diaphot inverted fluorescence microscope connected to a MacIntosh IIfx computer equipped with a Framegrabber video card.
Turning to `COc1cc(-c2ccc(N=Nc3ccc4c(S(=O)(=O)O)cc(S(=O)(=O)O)c(N)c4c3O)c(OC)c2)ccc1N=Nc1ccc2c(S(=O)(=O)O)cc(S(=O)(=O)O)c(N)c2c1O` [Chicago sky blue 6b], the pEC50 was 4.82.
The same measure, in the same setting: the same measure for `CCOc1ccc(Nc2ccc(C(=C3C=CC(=[N+](CC)Cc4cccc(S(=O)(=O)[O-])c4)C=C3C)c3ccc(N(CC)Cc4cccc(S(=O)(=O)O)c4)cc3C)cc2)cc1` [Coomassie brilliant blue G-250]: 4.40; for `CCOc1ccc(Nc2ccc(C(=C3C=CC(=[N+](CC)Cc4cccc(S(=O)(=O)[O-])c4)C=C3)c3ccc(N(CC)Cc4cccc(S(=O)(=O)O)c4)cc3)cc2)cc1` [Coomassie brilliant blue R-250]: 4.46.
`Cc1cc(-c2ccc(N=Nc3ccc4c(S(=O)(=O)O)cc(S(=O)(=O)O)c(N)c4c3O)c(C)c2)ccc1N=Nc1ccc2c(S(=O)(=O)O)cc(S(=O)(=O)O)c(N)c2c1O` [Evan's blue]: the pEC50 was 5.10.
On the same count and under the same terms, the same measure for `O=S(=O)(O)c1ccc2c(N=Nc3ccc(S(=O)(=O)O)c4ccccc34)c(O)c(S(=O)(=O)O)cc2c1` [amaranth]: 4.60.
On the same count and under the same terms, the same measure for `Cc1cc(-c2ccc(N=Nc3cc(S(=O)(=O)O)c4ccccc4c3N)c(C)c2)ccc1N=Nc1cc(S(=O)(=O)O)c2ccccc2c1N` [benzopurpurin 4b]: 4.30.
On to `O=S(=O)(O)c1ccc(N=Nc2ccc(N=Nc3c(O)ccc4ccccc34)c(S(=O)(=O)O)c2)cc1` [biebrich scarlet], for which the pEC50 is 4.40.
The same measure, in the same setting: the same measure for `Cc1c(C2(c3cc(Br)c(O)c(Br)c3C)OS(=O)(=O)c3ccccc32)cc(Br)c(O)c1Br` [bromocresol green]: 4.60; for `O=S1(=O)OC(c2cc(Br)c(O)c(Br)c2)(c2cc(Br)c(O)c(Br)c2)c2ccccc21` [bromophenol blue]: 4.80; for `O=C(O)c1cc2ccccc2c(N=Nc2c(O)cc(S(=O)(=O)O)c3ccccc23)c1O` [calconcarboxylic acid]: 5.00.
Same read-out and setting: the same measure for `COc1cc(-c2ccc(N=Nc3c(S(=O)(=O)O)cc4cc(S(=O)(=O)O)cc(N)c4c3O)c(OC)c2)ccc1N=Nc1c(S(=O)(=O)O)cc2cc(S(=O)(=O)O)cc(N)c2c1O` [direct blue 15]: 4.74; for `CCN(Cc1cccc(S(=O)(=O)O)c1)c1ccc(C(=C2C=CC(=[N+](CC)Cc3cccc(S(=O)(=O)[O-])c3)C=C2)c2ccc(S(=O)(=O)O)cc2)cc1` [light green S.F. yellowish]: 4.40.
Take `O=S(=O)(O)c1ccc(N=C2C=CC(=C(c3ccc(Nc4ccc(S(=O)(=O)O)cc4)cc3)c3ccc(Nc4ccc(S(=O)(=O)O)cc4)cc3)C=C2)cc1` [methyl blue]: the pEC50 is 4.70.
On the same count and under the same terms, the same measure for `O=S(=O)(O)c1ccc(N=Nc2ccc(N=Nc3c(O)c(S(=O)(=O)O)cc4cc(S(=O)(=O)O)ccc34)c(S(=O)(=O)O)c2)cc1` [ponceau S]: 5.30.
For the molecule `O=S(=O)(O)c1ccccc1N=Nc1c(S(=O)(=O)O)cc2cc(S(=O)(=O)O)c(N=Nc3ccccc3S(=O)(=O)O)c(O)c2c1O` [sulfonazo III], the pEC50 was 4.35.
In the case of `Cc1ccc2nc(-c3ccc(N=NNc4ccc(-c5nc6ccc(C)c(S(=O)(=O)O)c6s5)cc4)cc3)sc2c1S(=O)(=O)O` [thiazol yellow G], the pEC50 was 4.60.
On the same count and under the same terms, the same measure for aniline blue: 4.60; for “dextran sulfate [dextran sulfate (5 kDa)]”: 6.10; for heparan sulfate: 6.00.
Turning to pentosan sulfate [reference compound], the pEC50 was 5.82.
For the molecule potassium polyvinyl sulfate, the pEC50 was 7.46.

The same assay, now with this note: Gallus gallus, Sympathetic neuron, 10 min pre-incubation with compound, then toxic 22 kDa apoE fragments, overnight, read-out: C50, the concentration required to prevent 50% cell death as compared to control.
In the case of `O=C(O)C1=CC(=C(c2ccc(O)c(C(=O)O)c2)c2ccc(O)c(C(=O)O)c2)C=CC1=O` [aurintricarboxylic acid], the pEC50 is 4.96.
Same read-out and setting: the same measure for `Nc1c(S(=O)(=O)O)cc(Nc2ccc(Nc3nc(Cl)nc(Nc4ccccc4S(=O)(=O)O)n3)c(S(=O)(=O)O)c2)c2c1C(=O)c1ccccc1C2=O` [cibacron blue]: 4.70; for `Nc1c(/N=N/c2ccc(-c3ccc(/N=N/c4cc(S(=O)(=O)O)c5ccccc5c4N)cc3)cc2)cc(S(=O)(=O)O)c2ccccc12` [congo red]: 4.60; for `O=C1OC(c2ccc(O)c(S(=O)(=O)O)c2)(c2ccc(O)c(S(=O)(=O)O)c2)c2c(Br)c(Br)c(Br)c(Br)c21` [sulfobromophthalein]: 4.49.
On the same count and under the same terms, the same measure for `Cc1ccc(C(=O)Nc2ccc(S(=O)(=O)O)c3cc(S(=O)(=O)O)cc(S(=O)(=O)O)c23)cc1NC(=O)c1cccc(NC(=O)Nc2cccc(C(=O)Nc3cc(C(=O)Nc4ccc(S(=O)(=O)O)c5cc(S(=O)(=O)O)cc(S(=O)(=O)O)c45)ccc3C)c2)c1` [suramin sodium, reference compound]: 5.30; for `Cc1cc(-c2ccc(/N=N/c3c(S(=O)(=O)O)cc4cc(S(=O)(=O)O)cc(N)c4c3O)c(C)c2)ccc1/N=N/c1c(S(=O)(=O)O)cc2cc(S(=O)(=O)O)cc(N)c2c1O` [trypan blue]: 4.70.

The test system of another assay is E3- or E4-derived 22 kDa apoE fragment on embryonic chick sympathetic neurons. The assay is described as follows: Effects of apoE 22 kDa peptides on sympathetic neurons in culture, with dermatan sulfate pre-incubation. The class given is cell-based, chicken. Conditions: 4 μM dermatan sulfate, 10 min pre-incubation; overnight exposure to E3- or E4-derived 22 kDa fragment. As to the method:
Since the 22 kDa fragment contains the domain associated with toxicity and corresponds to the major N-terminal proteolytic fragment of apoE, assessment of the efficacy of a compound can first be screened by measuring the inhibition of the 22 kDa toxicity in vitro. The 22 kDa thrombolytic cleavage fragment product of apoE is neurotoxic and is purified from medium of HEK cells transfected with the gene for human apoE4. Neuronal toxicity is then assessed using dissociated embryonic chick sympathetic neurons in 96 well microtiter plates. Following the addition of the fragments, the cultures are incubated overnight. Viability is then assessed by vital dye staining.
Transfected HEK cells are cultured as previously described (LaDu, M. J., et al., J. Biol. Chem. 258:12348-54 (1983)). The apoE is concentrated from conditioned medium by ultrafiltration (10 kDa cut-off membrane, Amicon) followed by heparin column chromatography (heparin-coupled agarose beads, Sigma). […] The wells are washed with fresh F12 medium and images of the stained cells are collected from each well by using a Diaphot inverted fluorescence microscope connected to a Macintosh IIfx computer equipped with a Framegrabber video card. The number of labeled neurons is quantified from the stored images with NIH Image software (version 1.57).
With dermatan sulfate, the “toxicity of 22 kDa apoE fragment in treated neurons” value is given as “toxicity is completely ablated”.

Another assay deals with apoE peptide toxicity (141-149 domain).
Assay: not given
Conditions: peptide with second heparin-binding site, lacking the 141-149 sequence; cited from earlier work.
Consider “E211-243: apoE peptide containing a second heparin-binding site but lacking the 141-149 sequence (GERLRARMEEMGSRTRDRLDEVKEQVAEVRAKL; UniProt P02649 229-261, looked up, fragment) [reference compound]”, for which the “bioactivity (toxicity) of apoE peptide” value is “inactive”.

Staying with this assay, now noted: polyanionic glycosaminoglycans; cited from earlier work.
Regarding chondroitin sulfate, the “effect on apoE peptide-mediated toxicity” value is recorded as “ablation of peptide-mediated toxicity”.
For the molecule heparan sulfate, the “effect on apoE peptide-mediated toxicity” value is reported as “ablation of peptide-mediated toxicity”.
For the molecule heparin [reference compound], the “effect on apoE peptide-mediated toxicity” value is listed as “ablation of peptide-mediated toxicity”.
